Reference: US10772893B2, “2-(morpholin-4-yl)-1,7-naphthyridines” (BAYER PHARMA AKTIENGESELLSCHAFT, priority 2014, dated 2020)
pIC50: −log10 of the molar value.

System: HeLa cells
Test: Proliferation assay, crystal violet staining
Details: Homo sapiens, 96 h, read-out: Inhibition of HeLa cell proliferation, HeLa cells, 4 days incubation

pIC50 | SMILES
5.55 | C[C@@H]1COCCN1c1cc(-c2ccn(C3CCOCC3)n2)c2ccnc(-c3ccn[nH]3)c2n1 [Example 246, 2-[(3R)-3-methylmorpholin-4-yl]-8-(1H-pyrazol-5-yl)-4-[1-(tetrahydro-2H-pyran-4-yl)-1H-pyrazol-3-yl]-1,7-naphthyridine]
6.64 | C[C@@H]1COCCN1c1cc(-c2cnc(F)cc2F)c2ccnc(-c3ccn[nH]3)c2n1 [Example 247, 4-(4,6-difluoropyridin-3-yl)-2-[(3R)-3-methylmorpholin-4-yl]-8-(1H-pyrazol-5-yl)-1,7-naphthyridine]
6.35 | C[C@@H]1COCCN1c1cc(-c2cnn(C)c2)c2ccnc(-c3ccn[nH]3)c2n1 [Example 248, 2-[(3R)-3-methylmorpholin-4-yl]-4-(1-methyl-1H-pyrazol-4-yl)-8-(1H-pyrazol-5-yl)-1,7-naphthyridine]
6.39 | Cc1nn(C)cc1-c1cc(N2CCOC[C@H]2C)nc2c(-c3ccn[nH]3)nccc12 [Example 249, 4-(1,3-dimethyl-1H-pyrazol-4-yl)-2-[(3R)-3-methylmorpholin-4-yl]-8-(1H-pyrazol-5-yl)-1,7-naphthyridine]
6.94 | Cc1c(-c2cc(N3CCOC[C@H]3C)nc3c(-c4ccn[nH]4)nccc23)cnn1C [Example 250, 4-(1,5-dimethyl-1H-pyrazol-4-yl)-2-[(3R)-3-methylmorpholin-4-yl]-8-(1H-pyrazol-5-yl)-1,7-naphthyridine]
6.10 | C[C@@H]1COCCN1c1cc(C2CCNCC2)c2ccnc(-c3ccn[nH]3)c2n1 [Example 251, 2-[(3R)-3-methylmorpholin-4-yl]-4-(piperidin-4-yl)-8-(1H-pyrazol-5-yl)-1,7-naphthyridine]
6.65 | C[C@@H]1COCCN1c1cc(-c2c[nH]nc2C(F)(F)F)c2ccnc(-c3ccn[nH]3)c2n1 [Example 252, 2-[(3R)-3-methylmorpholin-4-yl]-8-(1H-pyrazol-5-yl)-4-[3-(trifluoromethyl)-1H-pyrazol-4-yl]-1,7-naphthyridine]
6.25 | C[C@@H]1COCCN1c1cc(-c2cnn(C3CCC3)c2)c2ccnc(-c3ccn[nH]3)c2n1 [Example 253, 4-(1-cyclobutyl-1H-pyrazol-4-yl)-2-[(3R)-3-methylmorpholin-4-yl]-8-(1H-pyrazol-5-yl)-1,7-naphthyridine]
6.51 | C[C@@H]1COCCN1c1cc(-c2cnn(C3CC3)c2)c2ccnc(-c3ccn[nH]3)c2n1 [Example 254, 4-(1-cyclopropyl-1H-pyrazol-4-yl)-2-[(3R)-3-methylmorpholin-4-yl]-8-(1H-pyrazol-5-yl)-1,7-naphthyridine]
6.34 | CC(C)n1cc(-c2cc(N3CCOC[C@H]3C)nc3c(-c4ccn[nH]4)nccc23)cn1 [Example 255, 2-[(3R)-3-methylmorpholin-4-yl]-4-[1-(propan-2-yl)-1H-pyrazol-4-yl]-8-(1H-pyrazol-5-yl)-1,7-naphthyridine]
6.58 | Cc1nn(C)c(C)c1-c1cc(N2CCOC[C@H]2C)nc2c(-c3ccn[nH]3)nccc12 [Example 258, 2-[(3R)-3-methylmorpholin-4-yl]-8-(1H-pyrazol-5-yl)-4-(1,3,5-trimethyl-1H-pyrazol-4-yl)-1,7-naphthyridine]
6.30 | C[C@@H]1COCCN1c1cc(-c2cn(C)nc2C(F)(F)F)c2ccnc(-c3ccn[nH]3)c2n1 [Example 259, 2-[(3R)-3-methylmorpholin-4-yl]-4-[1-methyl-3-(trifluoromethyl)-1H-pyrazol-4-yl]-8-(1H-pyrazol-5-yl)-1,7-naphthyridine]
6.31 | C[C@@H]1COCCN1c1cc(-c2cnn(CCO)c2)c2ccnc(-c3ccn[nH]3)c2n1 [Example 260]
6.38 | CCn1cc(-c2cc(N3CCOC[C@H]3C)nc3c(-c4ccn[nH]4)nccc23)cn1 [Example 261, 4-(1-ethyl-1H-pyrazol-4-yl)-2-[(3R)-3-methylmorpholin-4-yl]-8-(1H-pyrazol-5-yl)-1,7-naphthyridine]
6.33 | C[C@@H]1COCCN1c1cc(-c2ccn(C)c2)c2ccnc(-c3ccn[nH]3)c2n1 [Example 262, 2-[(3R)-3-methylmorpholin-4-yl]-4-(1-methyl-1H-pyrrol-3-yl)-8-(1H-pyrazol-5-yl)-1,7-naphthyridine]
6.48 | CC(C)n1ccc(-c2cc(N3CCOC[C@H]3C)nc3c(-c4ccn[nH]4)nccc23)n1 [Example 263, 2-[(3R)-3-methylmorpholin-4-yl]-4-[1-(propan-2-yl)-1H-pyrazol-3-yl]-8-(1H-pyrazol-5-yl)-1,7-naphthyridine]
6.70 | Cc1cc(-c2cc(N3CCOC[C@H]3C)nc3c(-c4ccn[nH]4)nccc23)c(C)n1C [Example 264, 2-[(3R)-3-methylmorpholin-4-yl]-8-(1H-pyrazol-5-yl)-4-(1,2,5-trimethyl-1H-pyrrol-3-yl)-1,7-naphthyridine]
6.81 | Cc1n[nH]cc1-c1cc(N2CCOC[C@H]2C)nc2c(-c3ccn[nH]3)nccc12 [Example 266, 2-[(3R)-3-methylmorpholin-4-yl]-4-(3-methyl-1H-pyrazol-4-yl)-8-(1H-pyrazol-5-yl)-1,7-naphthyridine]

pIC50 | SMILES
5.53 | C[C@@H]1COCCN1c1cc(N)c2ccnc(-c3ccn[nH]3)c2n1 [Example 267, 2-[(3R)-3-methylmorpholin-4-yl]-8-(1H-pyrazol-5-yl)-1,7-naphthyridin-4-amine]
6.38 | CC(C)Cn1cc(-c2cc(N3CCOC[C@H]3C)nc3c(-c4ccn[nH]4)nccc23)cn1 [Example 268, 2-[(3R)-3-methylmorpholin-4-yl]-4-[1-(2-methylpropyl)-1H-pyrazol-4-yl]-8-(1H-pyrazol-5-yl)-1,7-naphthyridine]
6.39 | C[C@@H]1COCCN1c1cc(-c2cn[nH]c2)c2ccnc(-c3ccn[nH]3)c2n1 [Example 269, 2-[(3R)-3-methylmorpholin-4-yl]-4-(1H-pyrazol-4-yl)-8-(1H-pyrazol-5-yl)-1,7-naphthyridine]
6.25 | C[C@@H]1COCCN1c1cc(-c2ncco2)c2ccnc(-c3ccn[nH]3)c2n1 [Example 270, 2-[(3R)-3-methylmorpholin-4-yl]-4-(1,3-oxazol-2-yl)-8-(1H-pyrazol-5-yl)-1,7-naphthyridine]
5.88 | Cc1nn(C)cc1-c1cc(N2CCOCC2)nc2c(-c3ccn[nH]3)nccc12 [Example 271, 4-(1,3-dimethyl-1H-pyrazol-4-yl)-2-(morpholin-4-yl)-8-(1H-pyrazol-5-yl)-1,7-naphthyridine]
6.19 | Cc1c(-c2cc(N3CCOCC3)nc3c(-c4ccn[nH]4)nccc23)cnn1C [Example 272, 4-(1,5-dimethyl-1H-pyrazol-4-yl)-2-(morpholin-4-yl)-8-(1H-pyrazol-5-yl)-1,7-naphthyridine]
6.00 | Cc1nn(C)c(C)c1-c1cc(N2CCOCC2)nc2c(-c3ccn[nH]3)nccc12 [Example 273, 2-(morpholin-4-yl)-8-(1H-pyrazol-5-yl)-4-(1,3,5-trimethyl-1H-pyrazol-4-yl)-1,7-naphthyridine]
6.21 | COCCS(C)(=O)=Nc1cc(N2CCOC[C@H]2C)nc2c(-c3ccn[nH]3)nccc12 (stereo partly drawn) [Example 274, 4-{[(2-methoxyethyl)(methyl)oxido-λ^6-sulfanylidene]amino}-2-[(3R)-3-methylmorpholin-4-yl]-8-(1H-pyrazol-5-yl)-1,7-naphthyridine]
6.40 | C[C@@H]1COCCN1c1cc(N=S(C)(=O)c2ccc(Br)cc2)c2ccnc(-c3ccn[nH]3)c2n1 (stereo partly drawn) [Example 277, 4-{[(4-bromophenyl)(methyl)oxido-λ^6-sulfanylidene]amino}-2-[(3R)-3-methylmorpholin-4-yl]-8-(1H-pyrazol-5-yl)-1,7-naphthyridine]
6.77 | C[C@@H]1COCCN1c1cc(N=S(C)(=O)C(C)(C)C)c2ccnc(-c3ccn[nH]3)c2n1 (stereo partly drawn) [Example 278, 4-{[tert-butyl(methyl)oxido-λ^6-sulfanylidene]amino}-2-[(3R)-3-methylmorpholin-4-yl]-8-(1H-pyrazol-5-yl]-1,7-naphthyridine]
6.38 | O=S1(=Nc2cc(N3CCOCC3)nc3c(-c4ccn[nH]4)nccc23)CCCCC1 [Example 280, N-[2-(morpholin-4-yl)-8-(1H-pyrazol-5-yl)-1,7-naphthyridin-4-yl]hexahydro-1λ^4-thiopyran-1-imine 1-oxide]
6.59 | CC(C)C(C)(O)c1cc(N2CCOC[C@H]2C)nc2c(-c3ccn[nH]3)nccc12 (stereo partly drawn) [Example 281, 3-methyl-2-{2-[(3R)-3-methylmorpholin-4-yl]-8-(1H-pyrazol-5-yl)-1,7-naphthyridin-4-yl}butan-2-ol]
5.93 | C[C@@H]1COCCN1c1cc(C(C)(O)C2CCOCC2)c2ccnc(-c3ccn[nH]3)c2n1 (stereo partly drawn) [Example 282, 1-{2-[(3R)-3-methylmorpholin-4-yl]-8-(1H-pyrazol-5-yl)-1,7-naphthyridin-4-yl}-1-(tetrahydro-2H-pyran-4-yl)ethanol]
6.84 | C[C@@H]1COCCN1c1cc(C(C)(O)C(C)(C)C)c2ccnc(-c3ccn[nH]3)c2n1 (stereo partly drawn) [Example 283, 3,3-dimethyl-2-{2-[(3R)-3-methylmorpholin-4-yl]-8-(1H-pyrazol-5-yl)-1,7-naphthyridin-4-yl}butan-2-ol]
6.07 | CCCCC(C)(O)c1cc(N2CCOC[C@H]2C)nc2c(-c3ccn[nH]3)nccc12 (stereo partly drawn) [Example 284, 2-{2-[(3R)-3-methylmorpholin-4-yl]-8-(1H-pyrazol-5-yl)-1,7-naphthyridin-4-yl}hexan-2-ol]
5.82 | O=C(NC1CC1)c1ccc(-c2cc(N3CCOCC3)nc3c(-c4ccn[nH]4)nccc23)cc1 [Example 291, N-cyclopropyl-4-[2-(morpholin-4-yl)-8-(1H-pyrazol-5-yl)-1,7-naphthyridin-4-yl]benzamide]
5.58 | Cc1ccncc1-c1cc(N2CCOCC2)nc2c(-c3ccn[nH]3)nccc12 [Example 292, 4-(4-methylpyridin-3-yl)-2-(morpholin-4-yl)-8-(1H-pyrazol-5-yl)-1,7-naphthyridine]

SMILES | pIC50
C[C@@H]1COCCN1c1cc(C2=CCNCC2)c2ccnc(-c3ccn[nH]3)c2n1 [Example 245, 2-[(3R)-3-methylmorpholin-4-yl]-8-(1H-pyrazol-5-yl)-4-(1,2,3,6-tetrahydropyridin-4-yl)-1,7-naphthyridine] | 6.46
